Test results as given in patent US20100069854A1, “Elastomeric Devices Containing Chlorhexidine/Fatty Acid Salts Made From Fatty Acids of 12 to 18 Carbons” (priority 2008, published 2010).

Key:
[1] = 90% THF+10% Methanol
From the text: Chlorhexidine diacetate, Chlorhexidine dodecanoate and chlorhexidine palmitate were loaded into silicone tubing by first dissolving the chlorhexidine salt in a 90% THF+10% Methanol solution. The tubing was then immersed in this solution for one day where it swelled and chlorhexidine salt diffused into the polymer matrix. The impregnated piece of tubing was removed and then vacuum dried to remove all volatile solvent.

[2] = Rate of release of chlorhexidine/fatty acid salts from coated polyurethane tubes into DI water; assay type: physicochemical; details: for Cumulative release of the chlorhexidine/fatty acid salts from the coated polyurethane tubes: 1 cm coated tube in DI water, 37° C.
Description: A solution of each respective chlorhexidine/fatty acid salt was prepared and used to infuse a sample of elastomeric material. To perform the test, individual samples, 8 cm pieces of polyurethane tube containing a colorant, were surface dip coated in respective solutions of the chlorhexidine/fatty acid salts. The solutions were prepared as follows: 8.6 g of Tecoflex (Noveon, Cleveland, Ohio) was dissolved in 174 g of Tetrahydrofuran and methanol. 5.88 g of chlorhexidine acetate, chlorhexidine laurate, chlorhexidine myristate, chlorhexidine palmitate and chlorhexidine stearate were individually dissolved into the polymer-solvent mixture. The samples were immersed into the solvent-polymer-salt mixture and then dried at room temperature, evaporating the solvent. A polymeric coating was produced on the surface of the tubes. The amounts of chlorhexidine/fatty acid salt adhered per cm of the tube was measured (Table 2) by exhaustively extracting the salt and measuring UV absorbance at 253 nm relative to controls: For each of the samples, the rate of release of chlorhexidine/fatty acid salts into an aqueous solution was determined. To perform the rate of release test, 1 cm from each of the coated polyurethane tubes, were submerged in DeIonized (DI) water and incubated at 37° C. for a period of 28 days to determine the rate of release of the salts from the respective 1 cm samples of coated polyurethane tubing. The water was collected and replaced with fresh water after approximately 2 hours. The water was again collected and replaced with fresh water after the first day and every seven days thereafter. The amount of chlorhexidine/fatty acid salt in the collected water was measured with an Agilent 8453 UV-Vis Diode Array Detector with a manual setup using a cuvette w/path length of 1 cm. Chlorhexidine absorbance was read at 253 nm and concentration was calculated via a calibration curve developed using standards of 1, 5, 10, 20, 30, 35, and 40 μg/mL chlorhexidine acetate in DI Water. The percentage of chlorhexidine/fatty acid salt released from the sample into an aqueous media (percent release) was calculated according to the following equation: Percent release=(cumulative release at that time period/initial content)*100.

[3] = Incorporation of chlorhexidine salts into silicone tubing (swelling impregnation, extraction, HPLC); assay type: physicochemical; details: one day, equivalent mass of chlorhexidine base extracted;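 note: columns differ by chlorhexidine salt concentration in the impregnation solution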
Description: Chlorhexidine diacetate, Chlorhexidine dodecanoate and chlorhexidine palmitate were loaded into silicone tubing by first dissolving the chlorhexidine salt in a 90% THF+10% Methanol solution.
Impregnated chlorhexidine was extracted from the tubing by immersing in an excess of THF to fully swell it and then adding an equal volume of water to extract the chlorhexidine salt. The quantity of chlorhexidine was determined by previously enumerated HPLC method. It is reported below for different concentration impregnation solutions in terms of the equivalent mass of chlorhexidine base extracted: […]

[4] = tested on: Pseudomonas aeruginosa ATCC 27853; assay: Basic broth adherence assay on coated polyurethane tubes; assay type: cell-based
Description: The antimicrobial effectiveness of the coated samples was subjected to different durations of DI water extraction by basic broth adherence assay. For each chlorhexidine/fatty acid salt tested, 3 samples of coated tubing were prepared and assayed. To prepare the inoculum, a culture of Pseudomonas aeruginosa ATCC 27853 was used to challenge the coated polyurethane tubes and controls. The negative control used was a length of uncoated polyurethane tube. The challenge microorganism suspension was prepared as follows: approximately three colonies were removed from a secondary working culture plated on Trypticase Soy Agar (TSA) (BD-Falcon) with 5% sheep's blood and added to 10 ml of Trypticase Soy Broth (TSB). The vial was vortexed for approximately 30 seconds and incubated for 4 hours at 37° C. at 100 rpm. Following incubation, the vial was removed and vortexed. The optical density of the organism suspension was read. The inoculum was then diluted in TSB to a concentration of 5×10^4 colony forming units per milliliter (CFU/mL). This concentration was confirmed by the Miles and Misra drop count method.
The basic broth adherence assay was performed in a 96 well micro titer plate. To each well of the micro titer plate containing either a test article or a control, 900 μl of TSB was added. To this, 100 μl of the adjusted inoculum was added (Note: Due to the 1/10 dilution per well, the starting inoculum concentration of each organism was […] for Pseudomonas aeruginosa). The micro titer plates were then sealed via parafilm® around the edges and wrapped in foil to avoid evaporation of liquid and light contact with the samples. The plates were then placed inside a shaker incubator set at 37° C. and 100 rpm for 24 hours. Incubation at 37° C. then continued until the elapse of 7 days, 14 days, and 21 days, respectively, for each of the 3 samples prepared for each chlorhexidine/fatty acid salt.
At the completion of the respective incubation periods, the samples were rinsed, sonicated, the sonicate was plated and adherence was evaluated. More particularly, following incubation, all samples and controls were dip-rinsed twice in phosphate buffered saline (PBS) to remove the surrounding media. After rinsing, test articles were sonicated in micro titer plate wells containing 1 mL of Dey-Engley (DE) neutralizing broth (Difco). The sonication liquid was then serially diluted, and plated onto the surface of DE neutralizing agar. Plates were incubated at 37° C. for 24 to 48 hours and colonies were counted. Recovery counts were recorded as CFU/mL.

In the case of N=C(NCCCCCCNC(=N)NC(=N)Nc1ccc(Cl)cc1)NC(=N)Nc1ccc(Cl)cc1.Nc1ccc(P(=O)(O)O)cc1.Nc1ccc(P(=O)(O)O)cc1 [Chlorhexidine Palmitate, chlorhexidine dipalmitate], the “Solubility in the swelling impregnation solvent mixture (in words)” value [1] is reported as “soluble at higher concentrations”, the “Cumulative release of the chlorhexidine/fatty acid salts from the coated polyurethane tubes” value ([2]; Day 1) is reported as 28 g and the “Cumulative release of the chlorhexidine/fatty acid salts from the coated polyurethane tubes” value ([2]; Day 7) is reported as 79 g. For the same molecule, the “Cumulative release of the chlorhexidine/fatty acid salts from the coated polyurethane tubes” value ([2]; Day 14) was 112 g, the “Cumulative release of the chlorhexidine/fatty acid salts from the coated polyurethane tubes” value ([2]; Day 21) was 132 g and the “Cumulative release of the chlorhexidine/fatty acid salts from the coated polyurethane tubes” value ([2]; Day 28) was 140 g. For the same molecule, the “Release from the coated sample over the test (in words)” value ([2]; FIG. 1, 28 days in DI water) was “continually released at an appreciable rate throughout the duration of the test”, the “Amount released from the coated sample over the 7 day period” value ([2]; from 21 to 28 days) was 8 µg and the “Salt content in silicone elastomeric medical article” value (shortened to “Salt content”) ([3]; 1% impregnation solution in 90% THF+10% Methanol) was 133 µg/cm. The “Salt content” value ([3]; 3% impregnation solution in 90% THF+10% Methanol) was 205 µg/cm, the “Salt content” value ([3]; 6% impregnation solution in 90% THF+10% Methanol) was 356 µg/cm and the “Salt content” value ([3]; 10% impregnation solution in 90% THF+10% Methanol) was 366 µg/cm. For the same molecule, the “Salt content” value ([3]; 20% impregnation solution in 90% THF+10% Methanol) was 407 µg/cm, the “Log10 reduction of adhered Pseudomonas aeruginosa onto the surface of coated polyurethane tubes” value (“Log10 reduction” below) ([4]; 7 days) was 7 and the “Log10 reduction” value ([4]; 14 days) was 7. For the same molecule, the “Log10 reduction” value ([4]; 21 days) was 7.
